The values that follow come from ChEMBL document CHEMBL4334515, “Lignans from Saururus chinensis with Inhibitory Effects on Nitric Oxide Production” (J Nat Prod, 2019).

Bounds are passed on as bounds.

For orientation: IC50 means the concentration that gives 50% inhibition.

The test system of data set [1] is RAW264.7. As to the kind of experiment: Cytotoxicity against mouse RAW264.7 cells assessed as effect on cell viability at 10 uM by CCK-8 assay. As to conditions: raw264.7, 10 µM. It is filed as cell-based.
Data set [2] deals with RAW264.7. As to the kind of experiment: Inhibition of LPS-induced NO production in mouse RAW264.7 cells incubated for 24 hrs in presence of LPS by Griess reagent based assay. It counts as functional, cell-based. To be noted: RAW264.7, 24 h. (In general: Griess reagent forms a coloured azo dye with nitrite.)

`C=CCc1cc(OC)c(O[C@H](C)[C@H](OC(C)=O)c2cc(OC)c(OC)c(OC)c2)c(OC)c1`: the Activity result in the data set with RAW264.7 [1] is recorded as “Non-Toxic”. In addition, in the data set on RAW264.7 [2], the half-maximal inhibitory concentration (IC50) turned out to be 10.4 µM.

Turning to `C/C=C/c1cc(OC)c(O[C@H](C)[C@H](OC(C)=O)c2cc(OC)c(OC)c(OC)c2)c(OC)c1`, in the data set with RAW264.7 [1], the Activity entry is reported as “Non-Toxic”. Also, in the data set on RAW264.7 [2], the IC50 worked out at 16.9 µM.

Turning to `COC/C=C/c1ccc(O[C@@H](C)C(=O)c2cc(OC)c(OC)c(OC)c2)c(OC)c1`, the Activity result with RAW264.7 [1] is listed as “Non-Toxic”. In the data set on RAW264.7 [2], the IC50 came out at 8.6 µM.

Turning to `COC1=CC(=O)C2=C(C1=O)[C@@H](c1cc3c(cc1O)OCO3)[C@H](C)[C@@H](C)C2`, in the data set with RAW264.7 [1], the Activity entry is listed as “Toxic”.

In the case of `COc1cc([C@@H]2OC(=O)O[C@H]2C)cc(OC)c1C`, the Activity entry with RAW264.7 [1] is “Non-Toxic”. Also, the concentration for half-maximal inhibition (IC50) in the data set with RAW264.7 [2] turned out to be 40.1 µM.

For `C/C=C/c1cc(OC)c(O[C@@H](C)C(=O)c2cc(OC)c(OC)c(OC)c2)c(OC)c1`, the Activity result in the data set on RAW264.7 [1] is given as “Non-Toxic”. The IC50 in the data set with RAW264.7 [2] is 14 µM.

For the molecule `CC(C(=O)c1ccc2c(c1)OCO2)[C@H](C)Cc1ccc2c(c1)OCO2` (stereo not given in full), in the data set on RAW264.7 [1], the Activity result is reported as “Non-Toxic”. The IC50 with RAW264.7 [2] is above 50 µM.

Turning to `CC(Cc1ccc2c(c1)OCO2)[C@H](C)Cc1ccc2c(c1)OCO2` (stereo not given in full), in the data set with RAW264.7 [1], the Activity result is on record as “Non-Toxic”. Moreover, the IC50 in the data set on RAW264.7 [2] stood at 16.5 µM.

Take `C=CCc1cc(OC)c(O[C@H](C)[C@H](O)c2cc(OC)c(OC)c(OC)c2)c(OC)c1`: the Activity entry with RAW264.7 [1] is “Non-Toxic”. Also, the IC50 in the data set with RAW264.7 [2] was determined as 46.1 µM.

For the molecule `C[C@H]1[C@@H]2c3cc4c(cc3O[C@]35OCOC3=CC(=O)[C@H](C[C@@H]1C)[C@H]25)OCO4`, in the data set with RAW264.7 [1], the Activity result was “Non-Toxic”. In addition, the IC50 in the data set with RAW264.7 [2] turned out to be 5.6 µM.

Consider `C[C@H]1[C@@H]2c3cc4c(cc3O[C@]35OCOC3=CC(=O)[C@@H](C[C@@H]1C)[C@H]25)OCO4`, for which the Activity entry with RAW264.7 [1] is listed as “Non-Toxic”. Also, the IC50 with RAW264.7 [2] was 9.2 µM.

Consider `C[C@H]1[C@@H]2c3cc4c(cc3O[C@]35OCOC3=CC(=O)[C@@H](C[C@@H]1C)[C@@H]25)OCO4`, for which, in the data set on RAW264.7 [1], the Activity entry is recorded as “Non-Toxic”. Also, the IC50 with RAW264.7 [2] was above 50 µM.

With `C=CCc1cc(OC)c(O[C@@H](C)[C@@H](OC(C)=O)c2cc(OC)c3c(c2)OCO3)c(OC)c1`, in the data set on RAW264.7 [1], the Activity entry is reported as “Non-Toxic”. The half-inhibitory concentration (IC50) in the data set on RAW264.7 [2] was found to be 23.7 µM.

Consider `C[C@H](Cc1cc2c(cc1O)OCO2)[C@H](C)Cc1cc2c(cc1O)OCO2`, for which the Activity result with RAW264.7 [1] is “Non-Toxic”. Moreover, the IC50 in the data set with RAW264.7 [2] worked out at 42.4 µM.

Consider `C=CCc1cc(OC)c(OC)c(OC)c1`, for which the Activity entry with RAW264.7 [1] is given as “Non-Toxic”. The IC50 in the data set with RAW264.7 [2] was above 50 µM.

For the molecule `COC/C=C/c1cc(OC)c(O[C@@H](C)[C@@H](O)c2cc(OC)c3c(c2)OCO3)c(OC)c1`, the Activity entry in the data set with RAW264.7 [1] is recorded as “Non-Toxic”. In the data set on RAW264.7 [2], the IC50 is 35.5 µM.

Consider `C[C@H](Cc1ccc2c(c1)OCO2)[C@H](C)Cc1cc2c(cc1O)OCO2` (relative stereo), for which, in the data set with RAW264.7 [1], the Activity result was “Non-Toxic”. Further, the IC50 in the data set on RAW264.7 [2] was 41.4 µM.

On to `C/C=C/c1ccc(O[C@@H](C)[C@@H](O)c2ccc(O)c(OC)c2)c(OC)c1` [MACHILIN D], for which the Activity result in the data set with RAW264.7 [1] was “Non-Toxic”. The IC50 with RAW264.7 [2] turned out to be 21.1 µM.

In the case of `COc1cc(C[C@@H](C)[C@@H](C)Cc2ccc(O)c(OC)c2)ccc1O` [MESODIHYDROGUAIARETIC ACID], the Activity entry with RAW264.7 [1] is given as “Non-Toxic”. Further, the IC50 with RAW264.7 [2] amounted to 20.3 µM.

Turning to `N=C(N)NN` [PIMAGEDINE], in the data set with RAW264.7 [2], the IC50 was 25.5 µM.

For `C[C@@H]([C@H](C)[C@H](O)c1ccc2c(c1)OCO2)[C@H](O)c1ccc2c(c1)OCO2` [SAUCERNEOL I], the Activity result in the data set with RAW264.7 [1] is on record as “Non-Toxic”. Further, in the data set on RAW264.7 [2], the IC50 is above 50 µM.
